Experiments:
Assay type in all cases: in vivo
[1] = test system: barnyard grass (Echinochloa crus-galli Beauv.), Ec; assay: Test Example 3: herbicidal effect on upland weeds before emergence; conditions: dosage 5 kg/ha
Outline: (§1)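 Test compound, formulated as a liquid at a fixed concentration, is sprayed before weed emergence. Two weeks later, kill rate is derived and herbicidal activity is rated.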

[2] = test system: forxtail grass (Alopecurus aequalis var. amurensis Ohwi), Am; assay: as above; conditions: foxtail grass, dosage 5 kg/ha
Outline: as §1

[3] = test system: cocklebur (Xanthium strumarium L.), Xs; assay: as above; conditions: dosage 5 kg/ha
Outline: as §1

[4] = test system: cleavers (Galium aparine L.), Ga; assay: as above; conditions: dosage 5 kg/ha
Outline: as §1

[5] = test system: velvetleaf (Abutilon theophtasti L.), At; assay: as above; conditions: dosage 5 kg/ha
Outline: as §1

[6] = test system: bird's eye speedwell (Veronica persica Poir.), Vp; assay: as above; conditions: dosage 5 kg/ha
Outline: as §1

[7] = test system: barnyard grass (Echinochloa crus-galli Beauv.), Ec; assay: Test Example 4: herbicidal effect on upland weeds after emergence; conditions: dosage 5 kg/ha; sprayed after emergence; judged 14 days after treatment
Outline: (§2)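 Weeds, soybean and wheat were sown in soil-filled vats, covered with soil and grown to set leaf stages before a post-emergence spray of an agent containing the compound at a prescribed concentration. Weed-killing rate and crop phytotoxicity were assessed 14 days after treatment.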

[8] = test system: forxtail grass (Alopecurus aequalis var. amurensis Ohwi), Am; assay: as above; conditions: dosage 5 kg/ha; sprayed after emergence; judged 14 days after treatment
Outline: as §2

[9] = test system: cocklebur (Xanthium strumarium L.), Xs; assay: as above; conditions: dosage 5 kg/ha; sprayed after emergence; judged 14 days after treatment
Outline: as §2

[10] = test system: cleavers (Galium aparine L.), Ga; assay: as above; conditions: dosage 5 kg/ha; sprayed after emergence; judged 14 days after treatment
Outline: as §2

[11] = test system: velvetleaf (Abutilon theophtasti L.), At; assay: as above; conditions: dosage 5 kg/ha; sprayed after emergence; judged 14 days after treatment
Outline: as §2

[12] = test system: bird's eye speedwell (Veronica persica Poir.), Vp; assay: as above; conditions: dosage 5 kg/ha; sprayed after emergence; judged 14 days after treatment
Outline: as §2

[13] = test system: barnyard grass (Echinochloa crus-galli Beauv.); assay: Test Example 2: herbicidal effect on paddy field weeds after emergence; conditions: Dosage 5 kg/ha; one-leaved stage; 21 days after treatment
Outline: (§3)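 Weeds in flooded paddy-soil pots were grown to the one-leaved stage, then the soil was treated with the compound solution at a set dosage.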

[14] = test system: monochoria (Monochoria vaginalis Presl); assay: as above; conditions: Dosage 5 kg/ha; one-leaved stage; 21 days after treatment
Outline: as §3

[15] = test system: bulrush (Scirpus juncoides Roxb.); assay: as above; conditions: Dosage 5 kg/ha; one-leaved stage; 21 days after treatment
Outline: as §3

wheat (Wh) = assay: Test Example 3: phytotoxicity to upland crop plants, treatment before emergence; conditions: dosage 5 kg/ha
Outline: (§4)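 Pre-emergence treatment: a liquid preparation containing a prescribed concentration of test compound was sprayed, and injury to soybean and wheat was assessed 14 days later. Phytotoxicity was judged against a scoring criterion, alongside weed-killing rate.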

soybean plant (So) = assay: as above; conditions: dosage 5 kg/ha
Outline: as §4

[16] = test system: barnyard grass (Echinochloa crus-galli Beauv.); assay: Test Example 1: herbicidal effect on paddy field weeds before emergence; conditions: Dosage 5 kg/ha
Outline: (§5)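 Seeds of both weeds, still ungerminated, in soil pots held under paddy conditions received a set dose of test solution as soil treatment. After twenty-one days, control relative to untreated pots was calculated and rated on a scoring scale.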

[17] = test system: bulrush (Scirpus juncoides Roxb.); assay: as above; conditions: Dosage 5 kg/ha
Outline: as §5

soybean plant = assay: Test Example 4: phytotoxicity to upland crop plants, treatment after emergence; conditions: dosage 5 kg/ha, sprayed after emergence, judged 14 days after treatment
Outline: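 Upland weeds and crop plants (soybean, wheat) are grown from seed in soil until they reach given leaf stages, then treated by spraying with the compound-containing agent; effects are judged two weeks later.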

wheat = assay: as above; conditions: dosage 5 kg/ha, sprayed after emergence, judged 14 days after treatment
Outline: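 Seeds sown in soil and covered. Plants raised to specified leaf stages. Agent with test compound at a prescribed concentration sprayed. Herbicidal effect and crop damage scored after 14 days as weed-killing rate.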

SMILES	Herbicidal effect Ec [1]	Herbicidal effect Am [2]	Herbicidal effect Xs [3]	Herbicidal effect Ga [4]	Herbicidal effect At [5]	Herbicidal effect Vp [6]	Herbicidal effect Ec [7]	Herbicidal effect Am [8]	Herbicidal effect Xs [9]	Herbicidal effect Ga [10]	Herbicidal effect At [11]	Herbicidal effect Vp [12]	Post-emergence treatment Barnyard grass (herbicidal effect) [13]	Post-emergence treatment Monochoria (herbicidal effect) [14]	Post-emergence treatment Bulrush (herbicidal effect) [15]	Phytotoxicity Wh (wheat (Wh))	Phytotoxicity So (soybean plant (So))	Pre-emergence treatment Barnyard grass (herbicidal effect) [16]	Pre-emergence treatment Bulrush (herbicidal effect) [17]	Phytotoxicity So (soybean plant)	further results
CCc1ccc(Cl)c(CC)c1NC(=O)c1cc2cc(OC)ccc2nc1C(=O)NOC(C)C [compound 291]	5 (Weed-killing rate is 100%.)	4 (Weed-killing rate is 90-99%.)	4 (Weed-killing rate is 90-99%.)	5 (Weed-killing rate is 100%.)	5 (Weed-killing rate is 100%.)	5 (Weed-killing rate is 100%.)	5 (Weed-killing rate is 100%.)	4 (Weed-killing rate is 90-99%.)	4 (Weed-killing rate is 90-99%.)	4 (Weed-killing rate is 90-99%.)	5 (Weed-killing rate is 100%.)	5 (Weed-killing rate is 100%.)	5 (Weed-killing rate is 100%.)	5 (Weed-killing rate is 100%.)	4 (Weed-killing rate is 90-99%.)	1 (Crop-killing rate is 1-39%.)	0 (Crop-killing rate is 0-20% (No Phytotoxicity).)	5 (Weed-killing rate is 100%.)	4 (Weed-killing rate is 90-99%.)	2 (Crop-killing rate is 40-69%.)	Phytotoxicity Wh (wheat): 2 (Crop-killing rate is 40-69%.)
CCCNC(=O)c1nc2sccc2cc1C(=O)Nc1c(CC)ccc(Cl)c1CC [compound 799]	5 (Weed-killing rate is 100%.)	5 (Weed-killing rate is 100%.)	5 (Weed-killing rate is 100%.)	5 (Weed-killing rate is 100%.)	5 (Weed-killing rate is 100%.)	5 (Weed-killing rate is 100%.)	5 (Weed-killing rate is 100%.)	5 (Weed-killing rate is 100%.)	5 (Weed-killing rate is 100%.)	5 (Weed-killing rate is 100%.)	5 (Weed-killing rate is 100%.)	5 (Weed-killing rate is 100%.)	5 (Weed-killing rate is 100%.)	5 (Weed-killing rate is 100%.)	5 (Weed-killing rate is 100%.)	5 (Crop-killing rate is 100%.)	5 (Crop-killing rate is 100%.)	5 (Weed-killing rate is 100%.)	5 (Weed-killing rate is 100%.)	5 (Crop-killing rate is 100%.)	Phytotoxicity Wh (wheat): 5 (Crop-killing rate is 100%.)
CCNC(=O)c1nc2ccccc2nc1C(=O)Nc1c(CC)ccc(Cl)c1CC [compound 1305]	5 (Weed-killing rate is 100%.)	5 (Weed-killing rate is 100%.)	5 (Weed-killing rate is 100%.)	5 (Weed-killing rate is 100%.)	5 (Weed-killing rate is 100%.)	5 (Weed-killing rate is 100%.)	5 (Weed-killing rate is 100%.)	5 (Weed-killing rate is 100%.)	5 (Weed-killing rate is 100%.)	5 (Weed-killing rate is 100%.)	5 (Weed-killing rate is 100%.)	5 (Weed-killing rate is 100%.)	5 (Weed-killing rate is 100%.)	5 (Weed-killing rate is 100%.)	5 (Weed-killing rate is 100%.)	5 (Crop-killing rate is 100%.)	5 (Crop-killing rate is 100%.)	5 (Weed-killing rate is 100%.)	5 (Weed-killing rate is 100%.)	5 (Crop-killing rate is 100%.)	Phytotoxicity Wh (wheat): 5 (Crop-killing rate is 100%.)
CCc1ccc(Cl)c(CC)c1NC(=O)c1cc2ccccc2nc1C(=O)NC [359-1]	5 (Weed-killing rate is 100%.)	5 (Weed-killing rate is 100%.)	5 (Weed-killing rate is 100%.)	5 (Weed-killing rate is 100%.)	5 (Weed-killing rate is 100%.)	5 (Weed-killing rate is 100%.)	5 (Weed-killing rate is 100%.)	5 (Weed-killing rate is 100%.)	5 (Weed-killing rate is 100%.)	5 (Weed-killing rate is 100%.)	5 (Weed-killing rate is 100%.)	5 (Weed-killing rate is 100%.)	5 (Weed-killing rate is 100%.)	5 (Weed-killing rate is 100%.)	5 (Weed-killing rate is 100%.)	0 (Crop-killing rate is 0-20% (No Phytotoxicity).)	0 (Crop-killing rate is 0-20% (No Phytotoxicity).)	5 (Weed-killing rate is 100%.)	5 (Weed-killing rate is 100%.)	3 (Crop-killing rate is 70-89%.)	Phytotoxicity Wh (wheat): 2 (Crop-killing rate is 40-69%.)
CCCNC(=O)c1nc2c(cc1C(=O)Nc1c(CC)ccc(Cl)c1CC)CCCS2 [compound 510]	5 (Weed-killing rate is 100%.)	5 (Weed-killing rate is 100%.)	5 (Weed-killing rate is 100%.)	5 (Weed-killing rate is 100%.)	5 (Weed-killing rate is 100%.)	5 (Weed-killing rate is 100%.)	5 (Weed-killing rate is 100%.)	5 (Weed-killing rate is 100%.)	5 (Weed-killing rate is 100%.)	5 (Weed-killing rate is 100%.)	5 (Weed-killing rate is 100%.)	5 (Weed-killing rate is 100%.)	5 (Weed-killing rate is 100%.)	5 (Weed-killing rate is 100%.)	5 (Weed-killing rate is 100%.)	5 (Crop-killing rate is 100%.)	4 (Crop-killing rate is 90-99%.)	5 (Weed-killing rate is 100%.)	5 (Weed-killing rate is 100%.)	4 (Crop-killing rate is 90-99%.)	Phytotoxicity Wh (wheat): 5 (Crop-killing rate is 100%.)

Source: US6444617B1, “Fused-heterocycle dicarboxylic acid diamide derivatives or salts thereof, herbicide and usage thereof” (Nihon Nohyaku Co., Ltd., priority 1998, dated 2002)
